Laboratory results: patent publication US20140288052A1, “SUBSTITUTED BICYCLIC AZA-HETEROCYCLES AND ANALOGUES AS SIRTUIN MODULATORS” (GlaxoSmithKline, LLC, priority 2011, published 2014)

What was measured:
SIRT1 [1] = molecular target: T1, SIRT1 (Homo sapiens, UniProt Q96EB6); assay: TAMRA based mass spectrometry assay of SIRT1 deacetylase activation; format: biochemical; conditions: TAMRA peptide substrate; for TAMRA EC1.5 (μM): concentration that results in 150% activation of SIRT1; for TAMRA % Fold Act: percent maximum fold activation relative to control (100%)
T1 sequence (Q96EB6 1-747): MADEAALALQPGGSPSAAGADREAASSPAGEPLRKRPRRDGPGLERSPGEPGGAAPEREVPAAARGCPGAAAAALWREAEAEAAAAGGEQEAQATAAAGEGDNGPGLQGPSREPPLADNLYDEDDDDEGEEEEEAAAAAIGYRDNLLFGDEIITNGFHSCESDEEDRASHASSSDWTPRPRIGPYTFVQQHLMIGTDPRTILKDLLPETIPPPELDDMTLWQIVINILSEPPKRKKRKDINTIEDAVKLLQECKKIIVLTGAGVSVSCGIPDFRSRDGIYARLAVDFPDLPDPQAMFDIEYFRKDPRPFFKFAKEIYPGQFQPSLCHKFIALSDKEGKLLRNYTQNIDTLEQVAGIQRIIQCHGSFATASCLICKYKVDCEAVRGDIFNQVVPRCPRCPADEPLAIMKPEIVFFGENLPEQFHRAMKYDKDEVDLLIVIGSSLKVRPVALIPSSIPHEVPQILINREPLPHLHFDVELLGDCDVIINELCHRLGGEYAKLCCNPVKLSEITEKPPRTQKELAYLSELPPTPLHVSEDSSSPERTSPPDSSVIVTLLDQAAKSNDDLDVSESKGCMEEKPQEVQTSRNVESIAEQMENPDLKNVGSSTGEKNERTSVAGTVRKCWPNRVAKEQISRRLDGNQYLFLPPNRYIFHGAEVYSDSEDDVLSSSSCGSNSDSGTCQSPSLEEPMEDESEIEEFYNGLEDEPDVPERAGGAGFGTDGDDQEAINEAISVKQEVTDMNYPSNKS
Procedure, shortened: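 E. coli-expressed N-terminal His-tagged human SIRT1 (10 nM) was incubated 25 min at 25 °C, pH 8 Tris-acetate buffer, with 0.5 μM TAMRA-labelled p53-derived acetyl-peptide, 120 μM NAD+ and varying compound; formic acid stop, mass-spec quantitation of deacetylated product vs DMSO controls. EC1.5 = concentration giving 150% activation.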

SIRT1 [2] = molecular target: T1, SIRT1; assay: Trp mass spectrometry assay of SIRT1 deacetylase activation; format: biochemical; conditions: Trp peptide substrate; for TRP EC1.5 (μM): concentration that results in 150% activation of SIRT1; for TRP % Fold Act: percent maximum fold activation relative to control (100%)
Procedure, shortened: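 His-tagged human SIRT1 (E. coli-expressed, 10 nM) was incubated with 0.5 μM Ac-RHKK(Ac)W-NH2 peptide and 120 μM βNAD+ for 25 min at 25 °C in HEPES pH 7.5, 1500 mM NaCl, with varying compound; formic acid quench. OAADPR or deacetylated peptide was quantified by mass spectrometry against DMSO control. EC1.5 (150% activation) and percent maximum activation were derived.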

| SMILES | TAMRA EC1.5 (μM) (SIRT1 [1]) | TAMRA % Fold Act (SIRT1 [1]) | TRP EC1.5 (μM) (SIRT1 [2]) | TRP % Fold Act (SIRT1 [2]) |
| --- | --- | --- | --- | --- |
| O=C(Nc1ccnc2cc(-c3ccccc3C(F)(F)F)nn12)c1ccccn1 [Compound 59] | A (EC1.5<1 μM) | A (Fold activation≧350%) | B (EC1.5 1−25 μM) | B (Fold Activation<350%) |
| O=C(Nc1ccnc2cc(-c3ccccc3C(F)(F)F)nn12)c1ncccn1 [Compound 60] | A (EC1.5<1 μM) | A (Fold activation≧350%) | B (EC1.5 1−25 μM) | B (Fold Activation<350%) |
| O=C(Nc1ccnc2cc(-c3ccccc3C(F)(F)F)nn12)c1cnccn1 [Compound 61] | A (EC1.5<1 μM) | A (Fold activation≧350%) | C (EC1.5>25 μM) | B (Fold Activation<350%) |
| O=C(Nc1ccnc2cc(-c3ccccc3C(F)(F)F)nn12)c1ccncn1 [Compound 62] | B (EC1.5 1−25 μM) | B (Fold Activation<350%) | C (EC1.5>25 μM) | B (Fold Activation<350%) |
| O=C(Nc1ccnc2cc(-c3ccccc3C(F)(F)F)nn12)c1cccc(N2CCOCC2)n1 [Compound 63] | A (EC1.5<1 μM) | B (Fold Activation<350%) | C (EC1.5>25 μM) | B (Fold Activation<350%) |
| O=C(Nc1ccnc2cc(-c3ccccc3C(F)(F)F)nn12)c1cccc(N2CCC2)n1 [Compound 64] | A (EC1.5<1 μM) | B (Fold Activation<350%) | C (EC1.5>25 μM) | B (Fold Activation<350%) |
| O=C(Nc1ccnc2cc(-c3ccccc3C(F)(F)F)nn12)c1cccc(OCC(O)CO)n1 (stereo not shown) [Compound 65] | A (EC1.5<1 μM) | A (Fold activation≧350%) | A (EC1.5<1 μM) | A (Fold activation≧350%) |
| O=C(Nc1ccnc2cc(-c3cccc(C(F)(F)F)c3)nn12)c1cscn1 [Compound 66] | C (EC1.5>25 μM) | B (Fold Activation<350%) | C (EC1.5>25 μM) | B (Fold Activation<350%) |
| O=C(Nc1ccnc2cc(-c3cccc(C(F)(F)F)c3)nn12)c1ccccn1 [Compound 70] | C (EC1.5>25 μM) | B (Fold Activation<350%) | C (EC1.5>25 μM) | B (Fold Activation<350%) |
| O=C(Nc1ccnc2cc(-c3cccc(C(F)(F)F)c3)nn12)c1ncccn1 [Compound 71] | B (EC1.5 1−25 μM) | B (Fold Activation<350%) | C (EC1.5>25 μM) | B (Fold Activation<350%) |
| O=C(Nc1ccnc2cc(-c3cccc(C(F)(F)F)c3)nn12)c1cccc(OCC(O)CO)n1 (stereo not shown) [Compound 74] | B (EC1.5 1−25 μM) | B (Fold Activation<350%) | B (EC1.5 1−25 μM) | B (Fold Activation<350%) |
| O=C(Nc1ccccn1)c1ccnc2cc(-c3ccccc3C(F)(F)F)nn12 [Compound 75] | B (EC1.5 1−25 μM) | A (Fold activation≧350%) | B (EC1.5 1−25 μM) | B (Fold Activation<350%) |
| O=C(Nc1cccnc1)c1ccnc2cc(-c3ccccc3C(F)(F)F)nn12 [Compound 76] | B (EC1.5 1−25 μM) | A (Fold activation≧350%) | B (EC1.5 1−25 μM) | B (Fold Activation<350%) |
| O=C(Nc1ccncc1)c1ccnc2cc(-c3ccccc3C(F)(F)F)nn12 [Compound 77] | B (EC1.5 1−25 μM) | A (Fold activation≧350%) | B (EC1.5 1−25 μM) | B (Fold Activation<350%) |
| O=C(Nc1ccncn1)c1ccnc2cc(-c3ccccc3C(F)(F)F)nn12 [Compound 78] | A (EC1.5<1 μM) | A (Fold activation≧350%) | B (EC1.5 1−25 μM) | B (Fold Activation<350%) |
| O=C(Nc1nccs1)c1ccnc2cc(-c3ccccc3C(F)(F)F)nn12 [Compound 79] | B (EC1.5 1−25 μM) | B (Fold Activation<350%) | A (EC1.5<1 μM) | B (Fold Activation<350%) |
| Cc1cnc(NC(=O)c2ccnc3cc(-c4ccccc4C(F)(F)F)nn23)s1 [Compound 80] | B (EC1.5 1−25 μM) | B (Fold Activation<350%) | C (EC1.5>25 μM) | B (Fold Activation<350%) |
| Cc1csc(NC(=O)c2ccnc3cc(-c4ccccc4C(F)(F)F)nn23)n1 [Compound 81] | B (EC1.5 1−25 μM) | B (Fold Activation<350%) | B (EC1.5 1−25 μM) | B (Fold Activation<350%) |
| O=C(Nc1cccc(N2CCOCC2)n1)c1ccnc2cc(-c3ccccc3C(F)(F)F)nn12 [Compound 82] | A (EC1.5<1 μM) | A (Fold activation≧350%) | C (EC1.5>25 μM) | B (Fold Activation<350%) |
| O=C(Nc1cccc(CN2CCOCC2)n1)c1ccnc2cc(-c3ccccc3C(F)(F)F)nn12 [Compound 83] | A (EC1.5<1 μM) | A (Fold activation≧350%) | B (EC1.5 1−25 μM) | B (Fold Activation<350%) |
| O=C(Nc1cccnc1)c1ccnc2cc(-c3cccc(C(F)(F)F)c3)nn12 [Compound 85] | C (EC1.5>25 μM) | B (Fold Activation<350%) | C (EC1.5>25 μM) | B (Fold Activation<350%) |
| O=C(Nc1ccncc1)c1ccnc2cc(-c3cccc(C(F)(F)F)c3)nn12 [Compound 86] | C (EC1.5>25 μM) | B (Fold Activation<350%) | C (EC1.5>25 μM) | B (Fold Activation<350%) |
| O=C(Nc1nccs1)c1ccnc2cc(-c3cccc(C(F)(F)F)c3)nn12 [Compound 87] | C (EC1.5>25 μM) | B (Fold Activation<350%) | C (EC1.5>25 μM) | B (Fold Activation<350%) |
| Cc1cnc(NC(=O)c2ccnc3cc(-c4cccc(C(F)(F)F)c4)nn23)s1 [Compound 88] | B (EC1.5 1−25 μM) | B (Fold Activation<350%) | C (EC1.5>25 μM) | B (Fold Activation<350%) |
| Cc1csc(NC(=O)c2ccnc3cc(-c4cccc(C(F)(F)F)c4)nn23)n1 [Compound 89] | C (EC1.5>25 μM) | B (Fold Activation<350%) | C (EC1.5>25 μM) | B (Fold Activation<350%) |
